Where two headings read alike, the source gives them in different places.
Key:
[1] = background, Phase II clinical compound; cited from earlier work
hsMetAP-II = hsMetAP-II (Homo sapiens, UniProt P50579); assay: MetAP inhibitory activity, Met-Gly-Met-Met substrate, HPLC detection of Gly-Met-Met; assay type: biochemical, hs
Procedure: (§1) The below protocol describes the measurement of the inhibitory activity of the compounds of the present invention by using E. coli MetAP, hsMetAP-I, and hsMetAP-II.
Inhibition activity of compounds was studied using the tetrapeptide substrate Met-Gly-Met-Met (Bachem) followed by HPLC analysis of the product Gly-Met-Met. The assay was performed in 96 well plates (Greiner) at a total reaction volume of 100 µl. […] Then the substrate Met-Gly-Met-Met was added to a final concentration of 400 µM. After an incubation period of 15 minutes (HsMetAP-I), 20 minutes (EcMetAP) or 60 minutes (HsMetAP-II) at 37 °C, the enzyme reaction was stopped by adding 10 µl 4 % trifluoroacetic acid. The plate was centrifuged at 1000 x g for 10 minutes.
(§2) Detection of the product Gly-Met-Met was performed by HPLC (Jasco), and typically using the following, or equivalent conditions: C18 column (Dr. Maisch, ReproSil-Pur® 120 ODS-3, 3 µm, 50 x 2 mm). 80 µl of sample were applied on the column and eluted with mobile phase A (water and 0.1 % trifluoroacetic acid, filtered, degassed) and B (acetonitrile and 0.1 % trifluoroacetic acid, degassed) over 8 minutes.
(§3) Percentage inhibition was calculated as the relation of Gly-Met-Met amount resulting in inhibited and uninhibited enzyme reaction (positive control). […] The values were determined in relation to positive controls with equal DMSO contents. The inhibition values for the varying concentrations of inhibitor were then fitted to a logarithmic dose-response curve and the IC50 values were calculated from the equation thus obtained.

E. coli MetAP = E. coli MetAP (Escherichia coli, UniProt P0AE18); assay: as above; assay type: biochemical; conditions: for E. Coli % inhibition: single concentration: inhibitor 25 µM, enzyme 50 nM, 20 minutes substrate incubation at 37 °C; for inhibition at 25 µM: read-out: E. Coli % inhibition
Chain of E. coli MetAP (P0AE18 whole entry): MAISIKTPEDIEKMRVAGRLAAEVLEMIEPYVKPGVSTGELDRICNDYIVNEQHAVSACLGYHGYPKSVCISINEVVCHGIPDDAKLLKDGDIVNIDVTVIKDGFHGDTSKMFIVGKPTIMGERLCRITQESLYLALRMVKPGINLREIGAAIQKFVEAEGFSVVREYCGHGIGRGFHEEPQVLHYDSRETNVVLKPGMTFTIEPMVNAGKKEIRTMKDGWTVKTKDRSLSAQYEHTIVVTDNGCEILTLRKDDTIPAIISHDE
Procedure: as §1
(§4) Inhibition activity of compounds was studied using the tetrapeptide substrate Met-Gly-Met-Met (Bachem) followed by HPLC analysis of the product Gly-Met-Met. The assay was performed in 96 well plates (Greiner) at a total reaction volume of 100 µl. […] A positive control with DMSO solution instead of inhibitor at the corresponding concentration was prepared. Then the substrate Met-Gly-Met-Met was added to a final concentration of 400 µM. After an incubation period of 15 minutes (HsMetAP-I), 20 minutes (EcMetAP) or 60 minutes (HsMetAP-II) at 37 °C, the enzyme reaction was stopped by adding 10 µl 4 % trifluoroacetic acid. The plate was centrifuged at 1000 x g for 10 minutes.
as §2, §3

hsMetAP-I = hsMetAP-I (Homo sapiens, UniProt P53582); assay: as above; assay type: biochemical, hs; conditions: single concentration: inhibitor 25 µM, enzyme 50 nM, 15 minutes substrate incubation at 37 °C
Procedure: as §1, §4, §2, §3

[2] = system: human umbilical vein endothelial cells (HUVEC); assay: HUVEC growth arrest, crystal violet staining; assay type: cell-based
Text: For the measurement of the HUVEC growth arrest (Example 19) and the used materials and equipment were:
• Cells: Primary human umbilical vein cells (HUVEC) were obtained from GIBCO (Cat. C-015-5C). • Cell culture medium: Medium 200 supplemented with LSGS (Gibco, Cat. M-200-500). • Trypsin/EDTA (Gibco, Cat R-001-100) • Trypsin Neutralizer solution (Gibco, Cat R-002-100). • Crystal violet (Merck / Cat. no. 1408) • Ethanol (Riedel-de-Haen / Cat. no. 32205) • Acetic acid (Riedel-de-Haen / Cat. no. 33209) • Culture flasks: Coming, 430168 • 96 well plates: Greiner, 655 101
• Microtiter pipettes: •Brand Transferpette-8, • Gilson Pipetman 20 and 200 Laminar air flow cabinet: Gelman, Celaire • ELISA reader: Thermo, Multiskan Ascent • Microscope: Leitz Diavert • Balance: Sartorius RC 210 D • CO2 incubator: Heraeus CO2-Auto-Zero • Centrifuge: Heraeus Biofuge primo • Cell counter: Assistent, Neubauer hematocytometer
Crystal violet solution: • Crystal violet (Merck) was dissolved in ethanol (PA quality, Roth) to a concentration of 10 %. The solution was diluted with ddH2O 1:20.
Test compounds: • Compounds of the present invention were dissolved at a concentration of 10 mM in DMSO (Roth, Cat. 47201). Stock solutions of test compounds were diluted 1:10 not earlier than 1 hour before the assay was made.
• 1. HUVEC cells were seeded in 96-well plates ([…]). • 2. 6 hours later test compounds were added in triplicates Concentrations of test compound: 0, 1.6, 3.2, 6.3, 12.5, 25, 50, 100 µM. Fresh medium and test compounds were added every 48 hr. • 3. One 96 well plate (t=0) with untreated cells was fixed at the same time point as treatment of cells with test compounds was initiated. • 4. Test plates were incubated for 10 days in a CO2 incubator. • 5. Fixation of cells: Wells were washed with 100 µL/well PBS. PBS was decanted and 100 µL of 3 % formaldehyde/well was added. After 5 min, formaldehyde was decanted and plates were dried upside down on blotting paper overnight at room temperature. • 6. Staining: 0.1 mL of crystal violet solution was added to each well with a 12-channel pipette. After incubation for 5 min at room temperature, the crystal violet solution was decanted and plates were washed 5 x by submersion in 3 L fresh water. • 7. After drying (plates were dried on blotting paper upside down overnight) 0.1 mL of ethanol/acetic acid (99:1) was added to each well and the optical density at 595 nm was determined in an ELISA reader.
The evaluation of the growth inhibitory activity was carried out as follows: • Definitions: Growth: Mean OD at t=10 d - mean OD at t=0. • Evaluation: Dose response curves were established by plotting growth against concentration of compounds using Microsoft Excel.

[3] = hsMetAP-II IC50, enzyme 50 nM, 400 µM Met-Gly-Met-Met, 60 minutes at 37 °C
[4] = read-out: hsMetAP-II % inhibition, single concentration: inhibitor 25 µM, enzyme 50 nM, 60 minutes substrate incubation at 37 °C
[5] = Homo sapiens, HUVEC, 240 h, growth over 10 days, 0-100 µM, OD at 595 nm, read-out: HUVEC IC50
[6] = single concentration: inhibitor 25 µM, enzyme 50 nM, 60 minutes substrate incubation at 37 °C
[7] = growth over 10 days, 0-100 µM, OD at 595 nm, read-out: HUVEC IC50
[8] = enzyme 50 nM, 400 µM Met-Gly-Met-Met, 60 minutes at 37 °C, read-out: hsMetAP-II IC50
[9] = single concentration: inhibitor 25 µM, enzyme 50 nM, 60 minutes substrate incubation at 37 °C, read-out: hsMetAP-II % inhibition

Chain of hsMetAP-II (P50579 whole entry): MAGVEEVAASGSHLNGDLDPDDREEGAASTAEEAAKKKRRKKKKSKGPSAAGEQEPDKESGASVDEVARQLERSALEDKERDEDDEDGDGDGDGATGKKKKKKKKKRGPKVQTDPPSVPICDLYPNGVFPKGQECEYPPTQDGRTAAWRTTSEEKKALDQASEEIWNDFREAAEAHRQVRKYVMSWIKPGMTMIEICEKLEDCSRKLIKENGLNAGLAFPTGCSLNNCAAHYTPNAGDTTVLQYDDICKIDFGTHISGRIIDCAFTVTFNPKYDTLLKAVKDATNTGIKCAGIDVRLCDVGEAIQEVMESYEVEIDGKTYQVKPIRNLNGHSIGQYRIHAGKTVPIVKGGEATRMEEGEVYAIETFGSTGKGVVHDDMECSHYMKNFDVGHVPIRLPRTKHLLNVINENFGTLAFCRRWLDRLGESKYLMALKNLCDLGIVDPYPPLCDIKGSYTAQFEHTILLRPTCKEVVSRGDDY

Structure (SMILES)	plasma half-life [1]	inhibitory effect on MetAP-II (in words) (hsMetAP-II)	IC50 (hsMetAP-II; [3])	inhibition at 25 µM (hsMetAP-II; [4])	E. Coli % inhibition (E. coli MetAP)	hsMetAP-I % inhibition (hsMetAP-I)	IC50 ([2]; Homo sapiens, HUVEC, 240 h, read-out: HUVEC IC50, growth over 10 days, 0-100 µM, OD at 595 nm)	inhibition at 25 µM (E. coli MetAP)	IC50 [2, 5]	hsMetAP-II % inhibition (hsMetAP-II; [6])	IC50 [2, 7]	IC50 (hsMetAP-II; [8])	inhibition at 25 µM (hsMetAP-II; [9])	IC50 (hsMetAP-II)
CO[C@@H]1[C@H](OC(=O)NC(=O)CCl)CC[C@]2(CO2)[C@H]1[C@@]1(C)O[C@@H]1CC=C(C)C [TNP-470]	~ 2 min													
COc1ccc(Cn2nnc3c2[C@]2(CC[C@H]3OC(=O)c3ccccc3)CO2)cc1 (racemic) [UWU-II-023-A]		good inhibitory effect	600 ± 10 nM	98.6 ± 0.4%	Inactive	Inactive	2400 nM							
CC(C)NC(=O)O[C@@H]1CC[C@]2(CO2)c2c1nnn2Cc1ccccc1 (racemic) [UWU-XII-128-A]		good inhibitory effect	420 ± 70 nM	100%		Inactive		24 ± 2%	1200 nM					
COc1ccc(Cn2nnc3c2C2(CCC3OC(=O)Nc3ccccc3)CO2)cc1 (racemic) [UWU-XII-149-A]			990 ± 50 nM		Inactive	Inactive				100%	3200 nM			
O=C1CCC2(CO2)c2c1nnn2Cc1ccc(F)cc1 (stereo not drawn) [BK-I-178-A]						Inactive		13 ± 5%	3200 nM			870 ± 90 nM	100%	
COc1ccc(Cn2nnc3c2[C@@]2(CC[C@H]3OC(=O)c3ccccc3)CO2)cc1 (racemic) [UWU-XII-023-D]			17000 ± 12000 nM	45 ± 4%	Inactive	Inactive			2100 nM					
COc1ccc(Cn2nnc3c2C2(CCC3=O)CO2)cc1 (stereo not drawn) [HHS-I-028-B]		good inhibitory effect			Inactive	Inactive			8800 nM			980 ± 30 nM	97 ± 0.3%	
O=C1CCC2(CO2)c2c1nnn2CC1CCCCC1 (stereo not drawn) [BK-I-177-A]						Inactive		19 ± 5%	9700 nM			17000 ± 6000 nM	40 ± 3%	
COc1ccc(Cn2nnc3c2C2(CCC3OC(=O)NCC(C)C)CO2)cc1 (racemic) [UWU-XII-142-A]				100%		Inactive		18.7 ± 0.8%	2400 nM					150 ± 30 nM
COc1ccc(Cn2nnc3c2C2(CCC3OC(=O)Nc3ccccc3)CO2)cc1 (racemic) [UWU-XIII-005-A]			18000 ± 5000 nM		Inactive	Inactive				44 ± 6%	14900 nM			
O=C1CCC2(CO2)c2c1nnn2Cc1ccc(C(F)(F)F)cc1 (stereo not drawn) [BK-I-161-A]		good inhibitory effect			Inactive	Inactive			900 nM			520 ± 50 nM	100%	
O=C1CCC2(CO2)c2c1nnn2Cc1ccc(Cl)cc1 (stereo not drawn) [BK-I-184-A]						Inactive		14 ± 5%	7400 nM			740 ± 30 nM	100%	
